What was measured:
Histone deacetylase 1 [1] = target: T1, Histone deacetylase 1 (Homo sapiens, UniProt Q13547); test: Inhibition of HDAC1 (unknown origin) expressed in baculovirus infected in Sf9 cells using RHKKAc as substrate preincubated for 5 to 10 mins followed by substrate addition measured after 2 hrs by fluorescence based assay
RPMI-8226 = test: cells; assay type: functional, cell-based; settings: Homo sapiens, RPMI-8226, 72 h
[2] = target: T2, Protein deacetylase HDAC6 (Homo sapiens, UniProt Q9UBN7); test: Inhibition of HDAC6 (unknown origin) expressed in baculovirus infected in Sf9 cells using RHKKAc as substrate preincubated for 5 to 10 mins followed by substrate addition measured after 2 hrs by fluorescence based assay
T2 sequence (Q9UBN7 whole entry): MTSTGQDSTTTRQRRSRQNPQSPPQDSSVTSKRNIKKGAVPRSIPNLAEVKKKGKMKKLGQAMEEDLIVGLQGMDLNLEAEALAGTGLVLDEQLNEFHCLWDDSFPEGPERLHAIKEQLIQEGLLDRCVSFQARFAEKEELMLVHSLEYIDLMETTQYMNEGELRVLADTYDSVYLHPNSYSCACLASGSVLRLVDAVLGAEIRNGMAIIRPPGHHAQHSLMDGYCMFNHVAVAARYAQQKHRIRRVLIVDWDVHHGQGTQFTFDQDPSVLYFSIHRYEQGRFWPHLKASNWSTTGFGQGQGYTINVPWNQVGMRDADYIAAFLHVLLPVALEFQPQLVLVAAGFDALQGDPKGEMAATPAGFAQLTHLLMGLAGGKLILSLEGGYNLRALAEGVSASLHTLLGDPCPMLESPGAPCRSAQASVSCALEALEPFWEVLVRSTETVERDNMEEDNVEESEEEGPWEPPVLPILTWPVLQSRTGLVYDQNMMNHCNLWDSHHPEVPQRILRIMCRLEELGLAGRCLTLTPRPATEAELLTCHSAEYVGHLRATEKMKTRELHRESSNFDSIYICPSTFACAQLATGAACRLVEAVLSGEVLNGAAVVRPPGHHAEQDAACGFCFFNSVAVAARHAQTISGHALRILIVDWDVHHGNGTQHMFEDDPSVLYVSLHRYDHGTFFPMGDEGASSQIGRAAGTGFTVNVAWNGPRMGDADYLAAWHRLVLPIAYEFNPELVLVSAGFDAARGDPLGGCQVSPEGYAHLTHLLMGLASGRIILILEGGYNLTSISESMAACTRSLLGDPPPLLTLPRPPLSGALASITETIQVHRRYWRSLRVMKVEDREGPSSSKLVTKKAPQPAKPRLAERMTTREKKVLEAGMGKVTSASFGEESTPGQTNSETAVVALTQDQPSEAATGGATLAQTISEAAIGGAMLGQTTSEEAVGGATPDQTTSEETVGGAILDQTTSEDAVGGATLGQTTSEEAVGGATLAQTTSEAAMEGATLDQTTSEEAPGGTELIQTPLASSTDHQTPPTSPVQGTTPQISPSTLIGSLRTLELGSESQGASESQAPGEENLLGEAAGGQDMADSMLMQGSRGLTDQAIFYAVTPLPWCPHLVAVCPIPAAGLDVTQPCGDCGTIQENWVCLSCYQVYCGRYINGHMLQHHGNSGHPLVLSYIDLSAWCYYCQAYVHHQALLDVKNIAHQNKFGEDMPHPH

[3] = target: T3, Protein deacetylase HDAC6 (Homo sapiens) (UniProt Q9UBN7); test: Inhibition of HDAC6 (unknown origin) expressed in baculovirus infected in Sf9 cells using RHKKAc as substrate at 500 nM preincubated for 5 to 10 mins followed by substrate addition measured after 2 hrs by fluorescence based assay relative to control; settings: time 5-130 min
T3 sequence (whole entry): T2 sequence (Q9UBN7 whole entry)

Histone deacetylase 1 [4] = target: T1, Histone deacetylase 1; test: Inhibition of HDAC1 (unknown origin) expressed in baculovirus infected in Sf9 cells using RHKKAc as substrate at 500 nM preincubated for 5 to 10 mins followed by substrate addition measured after 2 hrs by fluorescence based assay relative to control; settings: time 5-130 min

T1 sequence (Q13547 whole entry): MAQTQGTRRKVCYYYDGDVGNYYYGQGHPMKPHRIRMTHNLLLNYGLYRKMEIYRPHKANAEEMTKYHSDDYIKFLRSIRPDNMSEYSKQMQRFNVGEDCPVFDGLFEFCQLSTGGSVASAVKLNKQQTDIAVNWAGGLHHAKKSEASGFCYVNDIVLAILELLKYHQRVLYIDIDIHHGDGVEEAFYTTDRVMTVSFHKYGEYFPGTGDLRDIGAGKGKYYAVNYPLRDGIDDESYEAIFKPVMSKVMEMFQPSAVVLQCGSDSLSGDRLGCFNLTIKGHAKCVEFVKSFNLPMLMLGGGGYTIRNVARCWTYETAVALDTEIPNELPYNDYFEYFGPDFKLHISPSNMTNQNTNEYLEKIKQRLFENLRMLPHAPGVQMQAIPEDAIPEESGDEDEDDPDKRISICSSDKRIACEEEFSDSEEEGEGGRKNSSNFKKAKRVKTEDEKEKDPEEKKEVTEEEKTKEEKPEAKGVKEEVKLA

Row | SMILES | IC50 (Histone deacetylase 1 [1]) | IC50 (RPMI-8226) | IC50 [2] | inhibition [3] | inhibition (Histone deacetylase 1 [4])
1 | O=C(NO)c1ccc(CNC(=O)[C@H]2Cc3c([nH]c4ccccc34)[C@H](C3CC3)N2)cc1 | 38 nM | 830 nM | 4.36 nM | – | –
2 | COc1ccc([C@@H]2N[C@H](C(=O)NCc3ccc(C(=O)NO)cc3)Cc3c2[nH]c2ccccc32)cc1 | – | – | – | 87.1% | 30.6%
3 | O=C(NO)c1ccc(CNC(=O)[C@H]2Cc3c([nH]c4ccccc34)[C@H](C3CC3)N2Cc2ccc(Cl)cc2)cc1 | 184 nM | – | 10.5 nM | – | –
4 | COc1ccc([C@@H]2N[C@@H](C(=O)NCc3ccc(C(=O)NO)cc3)Cc3c2[nH]c2ccccc32)cc1 | 51.5 nM | – | 2.34 nM | 96.4% | 90.6%
5 | O=C(NO)c1ccc(CNC(=O)[C@H]2Cc3c([nH]c4ccccc34)[C@H](c3ccc(Cl)cc3)N2CC2CC2)cc1 | 106 nM | – | – | – | –
6 | COc1ccc([C@H]2N[C@@H](C(=O)NCc3ccc(C(=O)NO)cc3)Cc3c2[nH]c2ccccc32)cc1 | – | – | – | 82.3% | 35.8%
7 | O=C(NO)c1ccc(CNC(=O)[C@H]2Cc3c([nH]c4ccccc34)[C@H](C3CCCC3)N2)cc1 | 40.5 nM | 680 nM | 2.53 nM | – | –
8 | COc1ccc([C@@H]2N[C@@H](C(=O)NCc3ccc(C(=O)NO)cc3)Cc3c2[nH]c2ccccc32)cc1OC | 78 nM | 900 nM | – | – | –
9 | COc1ccc([C@H]2N[C@H](C(=O)NCc3ccc(C(=O)NO)cc3)Cc3c2[nH]c2ccccc32)cc1 | 494 nM | – | 3.75 nM | 98.7% | 71.4%
10 | COc1ccc(CN2Cc3[nH]c4ccccc4c3C[C@@H]2C(=O)NCc2ccc(C(=O)NO)cc2)cc1 | – | – | – | 83.4% | 32%
11 | COc1ccc(C[C@H]2N[C@H](C(=O)NCc3ccc(C(=O)NO)cc3)Cc3c2[nH]c2ccccc32)cc1 | – | – | – | 81.5% | 38.1%
12 | O=C(NO)c1ccc(CNC(=O)[C@H]2Cc3c([nH]c4ccccc34)[C@H](c3ccccc3)N2)cc1 | 42.3 nM | 580 nM | 2.1 nM | – | –
13 | COc1ccc(CN2[C@H](C(=O)NCc3ccc(C(=O)NO)cc3)Cc3c([nH]c4ccccc34)[C@H]2C2CC2)cc1 | 1680 nM | – | – | – | 43.2%
14 | COc1ccc(CN2[C@@H](C(=O)NCc3ccc(C(=O)NO)cc3)Cc3c([nH]c4ccccc34)[C@@H]2C)cc1 | 125 nM | – | 8.84 nM | – | –

Reference: ChEMBL document CHEMBL5625247, “Tetrahydro-β-carboline derivatives as potent histone deacetylase 6 inhibitors with broad-spectrum antiproliferative activity” (Eur J Med Chem, 2023)
